One assay has as its target retinol dehydrogenase. The conditions noted are these: Boerman and Napoli, Biochemistry 34:7027-37, 1995; cited from earlier work.
The test system of assay [1] is human dermal fibroblast cells. The experiment in a line: proliferation assay of human dermal fibroblast cells. Conditions: P142 1 mg/ml, peptides 6 μM; 24 hours and 4 days after treatment; FIG. 9. In kind it is cell-based. As to the method: Fibroblast cell culture is performed essentially as described for culture of hyperproliferative psoriatic keratinocytes (Example 3), except that following irrigation with complete culture medium, the dermal portion is incubated with 1 mg/ml of collagenase (Sigma) in 20 ml DMEM in a 50 ml centrifuge tube for 16 hours at 37° C. Then 20 ml DMEM containing 5% foetal calf serum and 1% antibiotic/antimycotic solution (Gibco) is added and the cells seeded at 37° C. in DMEM medium+additions at a density of 2500 cells/cm^2 in a 25 cm^2 cell culture flask. Medium is replaced every 48 hours and cells passaged when confluent.
Fibroblast cell culture and experiments are performed essentially as described for culture of hyperproliferative psoriatic keratinocytes (above), except that following irrigation with complete culture medium, the dermal portion is processed further. Reference is made to fibroblast culture protocols set out above.
Proliferation of cells is assayed by direct cell counting essentially as for determination of proliferation in keratinocyte cell cultures. RDH, ADH, RalDH inhibitors are found to reduce proliferation.

We go through two compounds from US8048918B2, “Treatment of hyperproliferative diseases” (Vampex Limited, priority 2000, dated 2011).

pIC50: −log10 of the molar value. Where no end group is shown, it is not given here.

As to `CC1(C)[C@@H](OC(=O)CCC(=O)O)CC[C@]2(C)[C@H]3C(=O)C=C4[C@@H]5C[C@@](C)(C(=O)O)CC[C@]5(C)CC[C@@]4(C)[C@]3(C)CC[C@@H]12` [Carbenoxolone], the negative logarithm of the IC50 (pIC50) (as a rule, the negative decadic logarithm of the IC50, by convention in mol/L) on retinol dehydrogenase was 4.26.

In the case of GRVRLLNNWDVCA, the “fibroblast proliferation (cell numbers)” value in assay [1] is “greater reduction in proliferation”.
